Structures can show the parent of a compound that is named as a salt.
system: HCT 116 cells; assay: CellTiter-Glo Luminescent Cell Viability Assay in HCT 116 cells; type: cell-based; conditions: Homo sapiens, HCT-116, 120 h, HCT 116 human colon carcinoma cell viability, 120 h (5 days) incubation, 10 concentrations 30 μM to 0.0015 μM, triplicate
Text: CellTiter-Glo™ Assay in HCT 116 Cells
The CellTiter-Glo™ Luminescent Cell Viability Assay (Promega) is a homogeneous method of determining the number of viable cells in culture based on quantitation of the ATP present, which signals the presence of metabolically active cells.
HCT 116 cells (human colon carcinoma, ATCC-No. CCl1-247) were cultivated in RPMI 1640 medium with GlutaMAX™ I (Invitrogen, Cat-No. 61870-010), 2.5% Fetal Calf Serum (FCS, Sigma Cat-No. F4135 (FBS)); 100 Units/ml penicillin/100 μg/ml streptomycin (=Pen/Strep from Invitrogen Cat. No. 15140). For the assay the cells were seeded in 384 well plates, 1000 cells per well, in the same medium. The next day the test compounds were added in various concentrations ranging from 30 μM to 0.0015 μM (10 concentrations, 1:3 diluted). After 5 days the CellTiter-Glo™ assay was done according to the instructions of the manufacturer (CellTiter-Glo™ Luminescent Cell Viability Assay, from Promega). In brief: the cell-plate was equilibrated to room temperature for approximately 30 minutes and than the CellTiter-Glo™ reagent was added. The contents were carefully mixed for 15 minutes to induce cell lysis. After 45 minutes the luminescent signal was measured in Victor 2, (scanning multiwell spectrophotometer, Wallac).
Medium: RPMI 1640 with GlutaMAX™ I (Invitrogen, Cat-Nr. 61870), 5% FCS (Sigma Cat.-No. F4135), Pen/Strep (Invitrogen, Cat No. 15140).
HCT116 (ATCC-No. CCl-247): 1000 cells in 60 μl per well of 384 well plate (Greiner 781098, μClear-plate white)
After seeding incubate plates 24 h at 37° C., 5% CO2
2nd. Day: Induction (Treatment with Compounds, 10 Concentrations):
In order to achieve a final concentration of 30 μM as highest concentration 3,5 μl of 10 mM compound stock solution were added directly to 163 μl media. Then step e) of the dilution procedure described below, was followed.
In order to achieve the second highest to the lowest concentrations, a serial dilution with dilution steps of 1:3 was followed according to the procedure (a–e) as described here below: • a) for the second highest concentration add 10 μl of 10 mM stock solution of compound to 20 μl dimethylsulfoxide (DMSO) • b) dilute 8×1:3 (always 10 μl to 20 μl DMSO) in this DMSO dilution row (results in 9 wells with concentrations from 3333.3 μM to 0.51 μM) • c) dilute each concentration 1: 47.6 (3.5 μl compound dilution to 163 μl media) • e) add 10 μl of every concentration to 60 μl media in the cell plate resulting in final concentration of DMSO : 0.3% in every well and resulting in 10 final concentration of compounds ranging from 30 μM to 0.0015 μM. • Each compound is tested in triplicate. • Incubate 120 h (5 days) at 37° C., 5% CO2
Analysis: • Add 30 μl CellTiter-Glo™ Reagent per well, • shake 15 minutes at room temperature • incubate further 45 minutes at room temperature without shaking
Measurement: • Victor 2 scanning multiwell spectrophotometer (Wallac), Luminescence mode (0.5 sec/read, 477 nm) • Determine IC50 using a non-linear curve fit (XLfit software (ID Business Solution Ltd., Guilford, Surrey, UK))

| Compound | IC50 |
| --- | --- |
| O=C(NS(=O)(=O)/C=C/c1ccsc1)c1ccc(F)cc1Cl [Example 1-3, (E)-2-Thiophen-3-yl-ethenesulfonic acid 2-chloro-4-fluoro-benzoylamide; sodium salt] | 0.5 to 15 µM |
| O=C(NS(=O)(=O)/C=C/c1ccsc1)c1ccc(F)cc1C(F)(F)F [Example 1-5, (E)-2-Thiophen-3-yl-ethenesulfonic acid 4-fluoro-2-trifluoromethyl-benzoylamide; sodium salt] | 0.5 to 15 µM |
| O=C(NS(=O)(=O)/C=C/c1ccsc1)c1ccc(C(F)(F)F)cc1C(F)(F)F [Example 1-6, (E)-2-Thiophen-3-yl-ethenesulfonic acid 2,4-bis-trifluoromethyl-benzoylamide; sodium salt] | 0.5 to 15 µM |
| Cc1ccc(/C=C/S(=O)(=O)NC(=O)c2ccc(Cl)cc2Cl)s1 [Example 1-8, (E)-2-(5-Methyl-thiophen-2-yl)-ethenesulfonic acid 2,4-dichloro-benzoylamide] | 0.5 to 15 µM |
| Cc1ccsc1/C=C/S(=O)(=O)NC(=O)c1ccc(Cl)cc1Cl [Example 1-9, (E)-2-(3-Methyl-thiophen-2-yl)-ethenesulfonic acid 2,4-dichloro-benzoylamide] | 0.5 to 15 µM |
| Cc1csc(/C=C/S(=O)(=O)NC(=O)c2ccc(Cl)cc2Cl)c1 [Example 1-10, (E)-2-(4-Methyl-thiophen-2-yl)-ethenesulfonic acid 2,4-dichloro-benzoylamide] | 0.5 to 15 µM |
| Cc1noc(C)c1/C=C/S(=O)(=O)NC(=O)c1ccc(Cl)cc1Cl [Example 1-11, (E)-2-(3,5-Dimethyl-isoxazol-4-yl)-ethenesulfonic acid 2,4-dichloro-benzoylamide; sodium salt] | 0.5 to 15 µM |
| O=C(NS(=O)(=O)/C=C/c1cccnc1)c1ccc(Cl)cc1Cl [Example 2-1, (E)-2-Pyridin-3-yl-ethenesulfonic acid 2,4-dichloro-benzoylamide; sodium salt] | 3.41 µM |
| O=C(NS(=O)(=O)/C=C/c1ccccn1)c1ccc(Cl)cc1Cl [Example 2-2, (E)-2-Pyridin-2-yl-ethenesulfonic acid 2,4-dichloro-benzoylamide; sodium salt] | 0.5 to 15 µM |
| COc1ccc(/C=C/S(=O)(=O)NC(=O)c2ccc(Cl)cc2Cl)cn1 [Example 2-4, (E)-2-(6-Methoxy-pyridin-3-yl)-ethenesulfonic acid 2,4-dichloro-benzoylamide; sodium salt] | 5.02 µM |
| O=C(NS(=O)(=O)/C=C/c1ccccn1)c1ccc(F)cc1Cl [Example 2-6, (E)-2-Pyridin-2-yl-ethenesulfonic acid 2-chloro-4-fluoro-benzoylamide; sodium salt] | 0.5 to 15 µM |
| O=C(NS(=O)(=O)/C=C/c1ccccn1)c1ccc(F)cc1C(F)(F)F [Example 2-7, (E)-2-Pyridin-2-yl-ethenesulfonic acid 4-fluoro-2-trifluoromethyl-benzoylamide; sodium salt] | 0.5 to 15 µM |
| O=C(NS(=O)(=O)/C=C/c1cccnc1)c1ccc(F)cc1C(F)(F)F [Example 2-9, (E)-2-Pyridin-3-yl-ethenesulfonic acid 4-fluoro-2-trifluoromethyl-benzoylamide; sodium salt] | 0.5 to 15 µM |
| COc1ccc(/C=C/S(=O)(=O)NC(=O)c2ccc(F)cc2Cl)cn1 [Example 2-10, (E)-2-(6-Methoxy-pyridin-3-yl)-ethenesulfonic acid 2-chloro-4-fluoro-benzoylamide; sodium salt] | 0.5 to 15 µM |
| O=C(NS(=O)(=O)/C=C/c1cccnc1)c1ccc(C(F)(F)F)cc1C(F)(F)F [Example 2-14, (E)-2-Pyridin-3-yl-ethenesulfonic acid 2,4-bis-trifluoromethyl-benzoylamide; sodium salt] | 0.5 to 15 µM |
| O=C(NS(=O)(=O)/C=C/c1cncnc1)c1ccc(Cl)cc1Cl [Example 2-18, (E)-2-Pyrimidin-5-yl-ethenesulfonic acid 2,4-dichloro-benzoylamide; sodium salt] | 0.5 to 15 µM |

| Compound | IC50 |
| --- | --- |
| O=C(NS(=O)(=O)/C=C/c1ccc(Cl)nc1)c1ccc(Cl)cc1Cl [Example 2-20, (E)-2-(6-Chloro-pyridin-3-yl)-ethenesulfonic acid 2,4-dichloro-benzoylamide; sodium salt] | 0.5 to 15 µM |
| O=C(NS(=O)(=O)/C=C/c1cccnc1Cl)c1ccc(Cl)cc1Cl [Example 2-21, (E)-2-(2-Chloro-pyridin-3-yl)-ethenesulfonic acid 2,4-dichloro-benzoylamide; sodium salt] | 0.5 to 15 µM |
| O=C(NS(=O)(=O)/C=C/c1nccs1)c1ccc(Cl)cc1Cl [Example 2-22, (E)-2-Thiazol-2-yl-ethenesulfonic acid 2,4-dichloro-benzoylamide; sodium salt] | 0.5 to 15 µM |
| O=C(NS(=O)(=O)/C=C/c1sccc1Br)c1ccc(Cl)cc1Cl [Example 2-24, (E)-2-(3-Bromo-thiophen-2-yl)-ethenesulfonic acid 2,4-dichloro-benzoylamide; sodium salt] | 0.5 to 15 µM |
| Cc1cccc(/C=C/S(=O)(=O)NC(=O)c2ccc(F)cc2Cl)n1 [Example 2-25, (E)-2-(6-Methyl-pyridin-2-yl)-ethenesulfonic acid 2-chloro-4-fluoro-benzoylamide; sodium salt] | 0.5 to 15 µM |
| O=C(NS(=O)(=O)/C=C/c1csc2ccccc12)c1ccc(F)cc1Cl [Example 2-26, (E)-2-Benzo[b]thiophen-3-yl-ethenesulfonic acid 2-chloro-4-fluoro-benzoylamide; sodium salt] | 0.5 to 15 µM |
| O=C(NS(=O)(=O)/C=C/c1csc2ccccc12)c1ccc(Cl)cc1Cl [Example 2-27, (E)-2-Benzo[b]thiophen-3-yl-ethenesulfonic acid 2,4-dichloro-benzoylamide; sodium salt] | 0.5 to 15 µM |
| O=C(NS(=O)(=O)/C=C/c1csc2ccccc12)c1ccc(F)cc1C(F)(F)F [Example 2-28, (E)-2-Benzo[b]thiophen-3-yl-ethenesulfonic acid 4-fluoro-2-trifluoromethyl-benzoylamide; sodium salt] | 0.5 to 15 µM |
| O=C(NS(=O)(=O)/C=C/c1csc2ccccc12)c1ccc(C(F)(F)F)cc1C(F)(F)F [Example 2-29, (E)-2-Benzo[b]thiophen-3-yl-ethenesulfonic acid 2,4-ditrifluoromethyl-benzoylamide; sodium salt] | 0.5 to 15 µM |
| COc1cc(Cl)ccc1C(=O)NS(=O)(=O)/C=C/c1cccs1 [Example 3-1, (E)-2-Thiophen-2-yl-ethenesulfonic acid 4-chloro-2-methoxy-benzoylamide; sodium salt] | 0.5 to 15 µM |
| Cc1cc(Cl)ccc1C(=O)NS(=O)(=O)/C=C/c1ccsc1 [Example 3-2, (E)-2-Thiophen-3-yl-ethenesulfonic acid 4-chloro-2-methyl-benzoylamide; sodium salt] | 0.5 to 15 µM |
| COc1cc(Cl)ccc1C(=O)NS(=O)(=O)/C=C/c1ccsc1 [Example 3-4, (E)-2-Thiophen-3-yl-ethenesulfonic acid 4-chloro-2-methoxy-benzoylamide; sodium salt] | 0.5 to 15 µM |
| Cc1cc(Br)ccc1C(=O)NS(=O)(=O)/C=C/c1ccsc1 [Example 3-5, (E)-2-Thiophen-3-yl-ethenesulfonic acid 4-bromo-2-methyl-benzoylamide; sodium salt] | 0.5 to 15 µM |
| Cc1ccc(C(=O)NS(=O)(=O)/C=C/c2ccsc2)c(Br)c1 [Example 3-7, (E)-2-Thiophen-3-yl-ethenesulfonic acid 2-bromo-4-methyl-benzoylamide; sodium salt] | 0.5 to 15 µM |
| O=C(NS(=O)(=O)/C=C/c1ccsc1)c1ccc(F)cc1Br [Example 3-9, (E)-2-Thiophen-3-yl-ethenesulfonic acid 2-bromo-4-fluoro-benzoylamide; sodium salt] | 0.5 to 15 µM |
| O=C(NS(=O)(=O)/C=C/c1ccsc1)c1ccc(Br)cc1Cl [Example 3-11, (E)-2-Thiophen-3-yl-ethenesulfonic acid 4-bromo-2-chloro-benzoylamide; sodium salt] | 0.5 to 15 µM |

Reference: patent publication US7208506B2, “Heteroarylethenyl derivatives, their manufacture and use as pharmaceutical agents” (Hoffmann-La Roche Inc., priority 2005, dated 2007)
